Residues, ends and D or L forms follow the SMILES beside them. *: point of attachment. X1 = CC1(C)C2CC3OB(C(CCCNC(=N)N)N*)OC3(C)C1C2; X2 = CC1(C)C2CC3OB(C(CCCSC(=N)N)N*)OC3(C)C1C2; X3 = CC1(C)C2CC3OB(C(CCCN)N*)OC3(C)C1C2; Boc = CC(C)(C)OC(=O)*

These results are taken from patent US5187157A, “Peptide boronic acid inhibitors of trypsin-like proteases” (Du Pont Merck Pharmaceutical Company, priority 1988, dated 1993).

In one assay the target is T1, Human plasma kallikrein (Homo sapiens, UniProt P03952).
T1 construct: purchased Protogen AG (Switzerland)
T1 sequence (P03952 391-638 limits assumed): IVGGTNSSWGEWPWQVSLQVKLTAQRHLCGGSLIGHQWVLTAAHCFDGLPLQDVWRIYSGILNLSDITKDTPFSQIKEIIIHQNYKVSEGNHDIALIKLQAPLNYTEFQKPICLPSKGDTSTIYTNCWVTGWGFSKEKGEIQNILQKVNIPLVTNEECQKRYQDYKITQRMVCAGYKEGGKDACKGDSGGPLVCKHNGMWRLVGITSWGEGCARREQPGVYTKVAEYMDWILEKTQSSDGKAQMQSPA
T1 sequence (P03952 20-390 partner limits assumed): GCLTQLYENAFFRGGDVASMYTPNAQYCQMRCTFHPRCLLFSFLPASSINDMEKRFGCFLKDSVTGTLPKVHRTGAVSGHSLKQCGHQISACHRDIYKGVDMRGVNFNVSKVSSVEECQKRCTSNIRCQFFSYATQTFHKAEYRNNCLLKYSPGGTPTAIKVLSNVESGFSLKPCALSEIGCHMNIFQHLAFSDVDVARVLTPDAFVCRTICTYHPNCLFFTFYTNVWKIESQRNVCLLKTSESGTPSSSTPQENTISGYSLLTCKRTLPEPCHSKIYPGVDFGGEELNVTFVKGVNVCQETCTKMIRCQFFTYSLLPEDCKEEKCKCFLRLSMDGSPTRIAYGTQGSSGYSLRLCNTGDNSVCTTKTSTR
Briefly: Inhibition of Human Plasma Kallikrein. It counts as biochemical. The settings on record: activity remaining 10 to 20 min after initiation. The procedure:
(§1) In the Examples which follow, the hydrolytic activity of each enzyme is measured in both the presence and absence of inhibitor and the percent enzyme activity determined. […] A steady state is reached fairly rapidly and nears completion within 5 min. Activity is evaluated between 10-20 min after the components are mixed to insure that reaction components are at equilibrium. The lowest concentration of inhibitor tested is determined by the estimated concentration of enzyme. […] The maintenance of pseudo-first-order reaction conditions and the sensitivity of the respective assays sets the lowest limit level of inhibitor tested at 10 nM for kallikrein inhibitors and 5 nM for thrombin inhibitors.
Human plasma kallikrein was obtained from Protogen AG (Switzerland). The specific activity as described by the supplier is 15 units per mg. A unit is defined as the quantity of enzyme required to hydrolyze 1 μmole of substrate, H-(D)Pro-Phe-Arg-p-nitroanilide (Kabi S2302), per min at a substrate concentration of 0.50 mM at 25° in 50 mM potassium phosphate buffer, pH 8.0.

A further assay has as its target T2, Human thrombin (Homo sapiens, UniProt P00734).
T2 construct: purchased R.Q.P. Laboratories, South Bend, IN Lot HT102
Briefly: Inhibition of Thrombin (Esterase Activity). In kind it is biochemical. The settings on record: activity remaining 10 to 20 min after initiation. The procedure:
as §1
A stock solution of thrombin was prepared in 0.010M PIPES Buffer, pH 6.0, containing 0.75 M sodium chloride. […] The initial concentration of substrate was 0.10 mM and the concentration of thrombin was 1.0 nM (based on weight).

As for `CC(C)(C)OC(=O)NC(Cc1ccccc1)C(=O)N1CCCC1C(=O)NC(CCCN)B1OC2CC3CC(C3(C)C)C2(C)O1.O=S(=O)(O)c1ccccc1` (stereo not drawn) [Boc--(D)Phe--Pro--boroOrn--C10 H16.BSA, Boc-(D)Phe-Pro-NH-CH[(CH2)3 NH2 ]BO2 -C10 H16.benzene sulfonic acid], the “Percent Activity” value came to 100% on Human plasma kallikrein (inhibitor 10000 nM) and 18% at Human thrombin (inhibitor 100 nM).
Take `CC(NC(=O)OC(C)(C)C)C(=O)NC(Cc1ccccc1)C(=O)NC(CCCCN)B1OC(C)(C)C(C)(C)O1.Cl` (stereo not drawn) [Boc--Ala--Phe--(D,L)boroLys--C6 H12.HCl, Boc-Ala-Phe-(D,L)boroLys-C6 H12.HCl]: the “Percent Activity” value is 17% on Human plasma kallikrein (inhibitor 1000 nM) and 46% at Human thrombin (inhibitor 10000 nM).
With “H-A]a-Phe-(D,L)boroLys-C6 H12.TFA.benzene sulfonic acid [H--Ala--Phe--D,L)boroLys--C6 H12.2HCl]”, at Human thrombin (inhibitor 10000 nM), the “Percent Activity” value turned out to be 89%.
As to `CCCCOC(=O)CC[C@H](NC(=O)c1ccccc1)C(=O)NCC(=O)NC(CCCNC(=N)N)B1OC2CC3CC(C3(C)C)C2(C)O1.O=S(=O)(O)c1ccccc1` (some centres unmarked) [Bz--Glu(OBu)--Gly--boroArg--C10 H16.BSA, Bz-Glu(OBu)-Gly-boroArg-C10 H16.benzene sulfonic acid], the results for the “Percent Activity” value at Human plasma kallikrein (inhibitor 50 nM) and at Human thrombin (inhibitor 10 nM) were 11% and 52%, respectively.
“Ac-Ala-Lys(Boc)-boroArg-C10 H16.benzene sulfonic acid [Ac--Ala--Lys(Boc)--boroArg--C10 H16.BSA]”: the “Percent Activity” value on Human plasma kallikrein (inhibitor 10 nM) worked out at 34%; at Human thrombin (inhibitor 100 nM), 18%.
In the case of `CC(=O)NC(C)C(=O)NC(CCCCN)C(=O)NC(CCCNC(=N)N)B1OC2CC3CC(C3(C)C)C2(C)O1.Cl.Cl` (stereo not drawn) [Ac--Ala--Lys--boroArg--C10 H16.2HCl, Ac-Ala-Lys-boroArg-C10 H16.2HCl], the “Percent Activity” value on Human plasma kallikrein (inhibitor 50 nM) worked out at 39%; on Human thrombin (inhibitor 1000 nM), 45%.
Turning to `Br.Br.CC(N)C(=O)NC(Cc1ccccc1)C(=O)NC(CCCCSC(=N)N)B1OC(C)(C)C(C)(C)O1` (stereo not drawn) [H-Ala-Phe-(D,L)boroHomoIrg-C6 H12.2HBr], the “Percent Activity” value on Human thrombin (inhibitor 10000 nM) stood at 47%.
Regarding `Br.Br.CC(C)CC(N)C(=O)NCC(=O)NC(CC(C)C)C(=O)NC(C)C(=O)NC(CCCSC(=N)N)B1OC2CC3CC(C3(C)C)C2(C)O1` (stereo not drawn) [H-Leu-Gly-Leu-Ala-boroIrg-C10 H16.2HBr] (H-LGLA-X2; configuration not given here), the “Percent Activity” value at Human thrombin (inhibitor 10 nM) came out at 37%.
Regarding `CC(C)(C)OC(=O)NC(Cc1ccccc1)C(=O)NC(Cc1ccccc1)C(=O)NC(CCCN)B1OC2CC3CC(C3(C)C)C2(C)O1.O=S(=O)(O)c1ccccc1` (stereo not drawn) [Boc--(D)Phe--Phe--boroOrn--C10 H16.BSA, Boc-(D)Phe-Phe-boroOrn-C10 H16.benzene sulfonic acid], the “Percent Activity” value at Human plasma kallikrein (inhibitor 10000 nM) is 39%.
For the compound “Bz-Pro-Phe-boroArg-F.hydrogen chloride [Bz--Pro--Phe--boroArg--F]”, the “Percent Activity” value on Human plasma kallikrein (inhibitor 10 nM) and on Human thrombin (inhibitor 1000 nM) was 18% each time.
Take `Br.CC(NC(=O)OC(C)(C)C)C(=O)NC(Cc1ccccc1)C(=O)NC(CCCCSC(=N)N)B1OC(C)(C)C(C)(C)O1` (stereo not drawn) [Boc-Ala-Phe-(D,L)boroHomoIrg-C6 H12.HBr]: the figures for the “Percent Activity” value on Human plasma kallikrein (inhibitor 100 nM) and on Human thrombin (inhibitor 10000 nM) were 38% and 32%, respectively.
`Br.CC1(C)C2CC3OB(C(CCCSC(=N)N)NC(=O)C4CCCN4C(=O)C(N)Cc4ccccc4)OC3(C)C1C2.Cl` (stereo not drawn) [H--(D)Phe--Pro--boroIrg--C10 H16.HBr.HCl, H-(D)Phe-Pro-boroIrg-C10 H16.HBr,HCl]: the “Percent Activity” value on Human thrombin (inhibitor 5 nM) is reported as 4%.
“Boc-Ala-Phe-(D,L)boroIrg-C6 H12.HBr [Boc--Ala--Phe--(D,L)boroIrg--C6 H12.HBr]”: the “Percent Activity” value on Human plasma kallikrein (inhibitor 10 nM) was 15%; on Human thrombin (inhibitor 1000 nM) it was 28%.
As for `Br.CC1(C)C2CC3OB(C(CCCSC(=N)N)NC(=O)C(Cc4ccccc4)NC(=O)C4CCCN4C(=O)c4ccccc4)OC3(C)C1C2` (stereo not drawn) [Bz--Pro--Phe--boroIrg--C10 H16.HBr, Bz-Pro-Phe-boroIrg-C10 H16.HBr], the “Percent Activity” value on Human thrombin (inhibitor 1000 nM) is 21%.
Same read-out and setting: then `Br.Br.CC(=O)NC(C)C(=O)NC(CCCCN)C(=O)NC(CCCSC(=N)N)B1OC2CC3CC(C3(C)C)C2(C)O1` (stereo not drawn) [Ac--Ala--Lys--boroIrg--C10 H16.2HBr, Ac-Ala-Lys-boroIrg-C10 H16.2HBr], with 68%.
With `CC1(C)C2CC3OB(C(CCCNC(=N)N)NC(=O)CNC(=O)C(CCC(=O)O)NC(=O)c4ccccc4)OC3(C)C1C2.O=S(=O)(O)c1ccccc1` (stereo not drawn) [Bz--Glu--Gly--boroArg--C10 H16.BSA, Bz-Glu-Gly-boroArg-C10 H16.benzene sulfonic acid], the “Percent Activity” value at Human plasma kallikrein (inhibitor 50 nM) is given as 39%; at Human thrombin (inhibitor 100 nM), 46%.
Turning to `CC(=O)NC(Cc1ccccc1)C(=O)NC(CCCCN)B1OC(C)(C)C(C)(C)O1.Cl` (centres unmarked) [Ac--Phe--boroLys--C6 H12.HCl, Ac-Phe-boroLys-C6 H12.benzene sulfonic acid], at Human thrombin (inhibitor 10000 nM), the “Percent Activity” value is 97%.
`Br.Br.CC1(C)C2CC3OB(C(CCCSC(=N)N)NC(=O)C(Cc4ccccc4)NC(=O)C(N)Cc4ccccc4)OC3(C)C1C2` (stereo not drawn) [H--(D)Phe--Phe-- boroIrg--C10 H16.2HBr, H-(D)Phe-Phe-boroIrg-C10 H16.2HBr]: at Human thrombin (inhibitor 10 nM), the “Percent Activity” value amounted to 49%.
In the case of `Br.Br.CC(N)C(=O)NC(Cc1ccccc1)C(=O)NC(CCCSC(=N)N)B1OC(C)(C)C(C)(C)O1` (stereo not drawn) [H--Ala--Phe--(D,L)boroIrg--C6 H12.2HBr, H-Ala-Phe-(D,L)boroIrg-C6 H12.2HBr], the “Percent Activity” value on Human thrombin (inhibitor 10000 nM) is reported as 23%.
Turning to `Br.CC1(C)C2CC3OB(C(CCCSC(=N)N)NC(=O)CNC(=O)CNC(=O)C(Cc4ccccc4)NC(=O)OCc4ccccc4)OC3(C)C1C2` (stereo not drawn) [Z--Phe--Gly--Gly--boroIrg--C10 H16.HBr, Z-PheGly-Gly-boroIrg-C10 H16.HBr], the “Percent Activity” value at Human thrombin (inhibitor 100 nM) is given as 46%.
Consider `CC(C)CC(NC(=O)C(NC(=O)OC(C)(C)C)C(C)C)C(=O)NC(CCCCN)B1OC(C)(C)C(C)(C)O1.Cl` (stereo not drawn) [Boc--(D)Val--Leu--boroLys--C6 H12.HCl, Boc-(D)Val-Leu-boroLys-C6 H12.benzene sulfonic acid], for which, at Human thrombin (inhibitor 1000 nM), the “Percent Activity” value amounted to 21%.
On the same count and under the same terms, in the case of `Br.CC1(C)C2CC3OB(C(CCCSC(=N)N)NC(=O)CNC(=O)C(CCC(=O)O)NC(=O)c4ccccc4)OC3(C)C1C2` (stereo not drawn) [Bz--Glu--Gly--boroIrg-- C10 H16.HBr, Bz-Glu-Gly-boroIrg-C10 H16.HBr] it was 39%.
As to `Br.CC(C)CC(NC(=O)CNC(=O)C(CC(C)C)NC(=O)OC(C)(C)C)C(=O)NC(C)C(=O)NC(CCCSC(=N)N)B1OC2CC3CC(C3(C)C)C2(C)O1` (stereo not drawn) [Boc-Leu-Gly-Leu-Ala-boroIrg-C10 H16.HBr] (Boc-LGLA-X2; configuration not given here), at Human thrombin (inhibitor 10 nM), the “Percent Activity” value was found to be 66%.
Same read-out and setting: in the case of “Bz-Glu(OBu)-Gly-boroIrg-C10 H16.HBr [Bz--Glu(OBu--Gly--boroIrg--C10 H16.HBr]” it was 59%; in that of `CC(C)CC(N)C(=O)NCC(=O)NC(CC(C)C)C(=O)NC(C)C(=O)NC(CCCNC(=N)N)B1OC2CC3CC(C3(C)C)C2(C)O1.Cl.O=S(=O)(O)c1ccccc1` (stereo not drawn) [H-Leu-Gly-Leu-Ala-boroArg-C10 H16.HCl.benzene sulfonic acid] (H-LGLA-X1; configuration not given here), 25%.
`CC(C)CC(NC(=O)CNC(=O)C(CC(C)C)NC(=O)OC(C)(C)C)C(=O)NC(C)C(=O)NC(CCCN)B1OC2CC3CC(C3(C)C)C2(C)O1.O=S(=O)(O)c1ccccc1` (stereo not drawn) [Boc-Leu-Gly-Leu-Ala-boroOrn-C10 H16] (Boc-LGLA-X3; configuration not given here): the “Percent Activity” value at Human thrombin (inhibitor 1000 nM) was determined as 24%.
